Assays:
Experiment in all cases: relative viability (nuclei count vs DMSO), 5 days (fraction); higher = more cells survive
[1] = test system: 201T
Procedure, shortened: (§1)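 Five library-drug doses in √10 steps were combined with a fixed anchor-drug dose, or a single drug was given alone, by pin tool to lung cancer cell lines in 1536-well plates the day after seeding. Nuclei were stained and counted after 5 days. Relative viability is the nuclei count in treated wells over that in vehicle wells, taken as the median of duplicate plates.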

[2] = test system: BEN
Procedure, shortened: as §1

[3] = test system: CAL-12T
Procedure, shortened: as §1

[4] = test system: HCC-827
Procedure, shortened: as §1

[5] = test system: LCLC-103H
Procedure, shortened: as §1

[6] = test system: LCLC-97TM1
Procedure, shortened: as §1

[7] = test system: LXF-289
Procedure, shortened: as §1

[8] = test system: NCI-H1395
Procedure, shortened: as §1

[9] = test system: NCI-H1437
Procedure, shortened: as §1

[10] = test system: NCI-H1650
Procedure, shortened: as §1

[11] = test system: NCI-H1792
Procedure, shortened: as §1

Work on O=c1cc(-c2cccc3c2Sc2ccccc2S3)oc(N2CCOCC2)c1 + COc1cccc2cc(-c3nc([C@H]4CC[C@H](C(=O)O)CC4)n4ncnc(N)c34)[nH]c12 [OSI-027] (partner 0.5 µM) yielded a relative viability ([1]; first compound 0.08 µM) of 0.876, a relative viability ([1]; first compound 0.8 µM) of 0.591 and a relative viability ([1]; first compound 2.53 µM) of 0.695. The relative viability ([1]; first compound 8 µM) was 0.734, the relative viability ([2]; first compound 0.08 µM) was 0.279 and the relative viability ([2]; first compound 0.253 µM) was 0.268. For the same molecule, the relative viability ([2]; first compound 0.8 µM) was 0.281, the relative viability ([2]; first compound 2.53 µM) was 0.298 and the relative viability ([2]; first compound 8 µM) was 0.321. For the same molecule, the relative viability ([3]; first compound 0.08 µM) was 0.671, the relative viability ([3]; first compound 0.253 µM) was 0.709 and the relative viability ([3]; first compound 0.8 µM) was 0.407. For the same molecule, the relative viability ([3]; first compound 2.53 µM) was 0.57, the relative viability ([3]; first compound 8 µM) was 0.297 and the relative viability ([4]; first compound 0.08 µM) was 0.802. It also gave a relative viability ([4]; first compound 0.253 µM) of 0.877, a relative viability ([4]; first compound 0.8 µM) of 0.947 and a relative viability ([4]; first compound 2.53 µM) of 0.643. The relative viability ([4]; first compound 8 µM) was 0.897, the relative viability ([5]; first compound 0.08 µM) was 0.434 and the relative viability ([5]; first compound 0.253 µM) was 0.489. For the same molecule, the relative viability ([5]; first compound 0.8 µM) was 0.504, the relative viability ([5]; first compound 2.53 µM) was 0.481 and the relative viability ([5]; first compound 8 µM) was 0.454. It also gave a relative viability ([6]; first compound 0.08 µM) of 0.48, a relative viability ([6]; first compound 0.253 µM) of 0.407 and a relative viability ([6]; first compound 0.8 µM) of 0.539. It also gave a relative viability ([6]; first compound 2.53 µM) of 0.519, a relative viability ([6]; first compound 8 µM) of 0.575 and a relative viability ([7]; first compound 0.08 µM) of 0.812. For the same molecule, the relative viability ([7]; first compound 0.253 µM) was 0.811, the relative viability ([7]; first compound 0.8 µM) was 0.871 and the relative viability ([7]; first compound 2.53 µM) was 0.697. It also gave a relative viability ([7]; first compound 8 µM) of 0.87, a relative viability ([8]; first compound 0.08 µM) of 0.594 and a relative viability ([8]; first compound 0.253 µM) of 0.581. For the same molecule, the relative viability ([8]; first compound 0.8 µM) was 0.601, the relative viability ([8]; first compound 2.53 µM) was 0.577 and the relative viability ([8]; first compound 8 µM) was 0.683. It also gave a relative viability ([9]; first compound 0.08 µM) of 0.885, a relative viability ([9]; first compound 0.253 µM) of 1.17 and a relative viability ([9]; first compound 0.8 µM) of 1.01. The relative viability ([9]; first compound 2.53 µM) was 0.891, the relative viability ([9]; first compound 8 µM) was 1.02 and the relative viability ([10]; first compound 0.08 µM) was 0.615. It also gave a relative viability ([10]; first compound 0.253 µM) of 0.593, a relative viability ([10]; first compound 0.8 µM) of 0.506 and a relative viability ([10]; first compound 2.53 µM) of 0.521. The relative viability ([10]; first compound 8 µM) was 0.561, the relative viability ([11]; first compound 0.08 µM) was 0.775 and the relative viability ([11]; first compound 0.253 µM) was 0.803. For the same molecule, the relative viability ([11]; first compound 0.8 µM) was 0.663, the relative viability ([11]; first compound 2.53 µM) was 0.647 and the relative viability ([11]; first compound 8 µM) was 0.581.

From the supplement of paper PMC10307832
